{"source": "patent US20220175916A1", "about": "“METHODS AND COMPOSITIONS FOR TREATING CHRONIC EFFECTS OF RADIATION AND CHEMICAL EXPOSURE” (priority 2018, published 2022)", "key": {"[1]": {"tested_on": "transgenic mouse model p16-3MR", "settings": "cited from earlier work"}, "[2]": {"tested_on": "breast cancer cells (MMTV-PyMT)", "settings": "cited from earlier work"}, "[3]": {"tested_on": "transgenic mouse model p16-3MR", "settings": "cited from earlier work", "remark": "listed apart in the source"}, "[4]": {"tested_on": "transgenic mouse model p16-3MR", "settings": "keratinocytes, endothelial cells, fibroblasts and smooth muscle cells; cited from earlier work"}, "[5]": {"tested_on": "murine embryonic fibroblasts, murine dermal fibroblasts and human dermal fibroblasts", "settings": "fibroblasts treated in vitro; cited from earlier work"}, "[6]": {"tested_on": "human histiocytic lymphoma U937 cell line", "assay": "Senescence-associated β-galactosidase assay by fluorescent microscope imaging", "format": "cell-based", "procedure": "Cells from the human histiocytic lymphoma U937 cell line were treated with doxorubicin, a chemotherapeutic agent, to induce senescence. Cells were treated with 0 μM, 0.01 μM, 0.1 μM or 1 μM doxorubicin for 3 days, or were treated with 0 μM, 0.1 μM or 1 μM doxorubicin for 6 days. Senescence was measured with a senescence-associated β-galactosidase assay by fluorescent microscope imaging."}, "[7]": {"tested_on": "pancreatic cancer PANG-1 cell line", "assay": "Fluorescence microscopy study of etoposide-induced senescence and anti-AGE antibody staining", "format": "cell-based", "settings": "12.5 μM for 24 hours", "procedure": "Cells from the pancreatic cancer PANG-1 cell line were treated with 12.5 μM etoposide, a chemotherapeutic agent, for 24 hours to induce senescence. Control cells were treated with dimethyl sulfoxide (DMSO) vehicle for 24 hours. The cells were then stained with a senescence β-galactosidase staining kit, an anti-AGE antibody conjugated to green fluorescent protein (GFP) or an anti-AGE antibody conjugated to GFP and 4′,6-diamidino-2-phenylindole (DAPI). GFP-stained cells appear green and DAPI-stained cells appear blue under fluorescence microscopy.\n(§1) FIG. 2A illustrates the untreated cells after staining with the senescence β-galactosidase staining kit. FIG. 2B illustrates the untreated cells after staining with the anti-AGE antibody conjugated to GFP. FIG. 2C illustrates the untreated cells after staining with the anti-AGE antibody conjugated to GFP-DAPI. FIGS. 2B and 2C have been brightened to enhance contrast. The untreated cells appear relatively uniform in size and shape and are densely packed.\nas §1, with “2D” for “2A”, “etoposide-treated” for “untreated”, “2E” for “2B”, “2F” for “2C”, “contrast.” for “contrast. The untreated cells appear relatively uniform in size and shape and are densely packed.”"}, "[8]": {"target": "carboxymethyl lysine conjugated to keyhole limpet hemocyanin (CML-KLH)", "assay": "direct ELISA, CML-KLH coat 1 ug/mL, antibody at 0.21 ug/mL"}, "[9]": {"target": "carboxymethyl lysine conjugated to keyhole limpet hemocyanin (CML-KLH)", "assay": "direct ELISA, CML-KLH coat 1 ug/mL, antibody at 1.85 ug/mL"}, "[10]": {"target": "carboxymethyl lysine conjugated to keyhole limpet hemocyanin (CML-KLH)", "assay": "direct ELISA, CML-KLH coat 1 ug/mL, antibody at 5.56 ug/mL"}, "[11]": {"target": "carboxymethyl lysine conjugated to keyhole limpet hemocyanin (CML-KLH)", "assay": "direct ELISA, CML-KLH coat 1 ug/mL, antibody at 0 ug/mL (buffer control, background)"}, "[12]": {"target": "carboxymethyl lysine conjugated to keyhole limpet hemocyanin (CML-KLH)", "assay": "direct ELISA, CML-KLH coat 1 ug/mL, antibody at 0.07 ug/mL"}, "[13]": {"target": "carboxymethyl lysine conjugated to keyhole limpet hemocyanin (CML-KLH)", "assay": "direct ELISA, CML-KLH coat 1 ug/mL, antibody at 50 ug/mL"}, "[14]": {"target": "carboxymethyl lysine conjugated to keyhole limpet hemocyanin (CML-KLH)", "assay": "direct ELISA, CML-KLH coat 1 ug/mL, antibody at 16.67 ug/mL"}, "[15]": {"target": "carboxymethyl lysine conjugated to keyhole limpet hemocyanin (CML-KLH)", "assay": "direct ELISA, CML-KLH coat 1 ug/mL, antibody at 0.62 ug/mL"}}, "data": [{"compound": "Nc1nc(O)c2ncn(COC(CO)CO)c2n1", "note": "[GCV, ganciclovir]", "values": [{"measurement": "Effect of elimination of senescent cells on inflammatory factors, HPCs and cardiac function", "setting": "[1]; after doxorubicin", "value": "reduced circulating inflammatory factors, promoted the functional recovery of HPCs and prevented cardiac dysfunction"}, {"measurement": "Survival and cancer metastases vs doxorubicin followed by vehicle", "setting": "[2]; doxorubicin followed by GCV", "value": "increased survival and reduced cancer metastases"}, {"measurement": "Tumor growth, metastases and metastatic foci vs vehicle", "setting": "[2]; surgical removal of palpable tumors prior to treatment", "value": "smaller tumor growth, reduced cancer metastases and fewer metastatic foci"}, {"measurement": "Effect of elimination of senescent cells on running activity and strength", "setting": "[3]; after doxorubicin or paclitaxel", "value": "nearly reversed the decline in running activity and improved the loss of strength"}]}, {"compound": "COc1cccc2c1C(=O)c1c(O)c3c(c(O)c1C2=O)C[C@@](O)(C(=O)CO)C[C@@H]3O[C@H]1C[C@H](N)[C@H](O)[C@H](C)O1", "note": "[doxorubicin]", "values": [{"measurement": "Effect on SASP factor genes, HPC function and cardiac function", "setting": "[1]; genetically engineered mice", "value": "increased expression of SASP factor genes associated with inflammation, reduction of hematopoietic progenitor cell (HPC) function and reduction in cardiac function"}, {"measurement": "Induction of senescence in vivo", "setting": "[4]", "value": "induced senescence in various cell types"}, {"measurement": "Induction of cellular senescence (SA-β-gal, DNA synthesis, p16INK4a mRNA, SASP, p21, LaminB1)", "setting": "[5]", "value": "symptoms of cellular senescence"}, {"measurement": "Chemotherapy-induced fatigue and strength", "setting": "[3]; running activity", "value": "chemotherapy-induced fatigue, as measured by running activity, and decline in strength"}, {"measurement": "Cells that fluoresce (senescence-associated β-galactosidase)", "setting": "[6]; 0.01 μM for 3 days", "value": "about 85%"}, {"measurement": "Cells that fluoresce (senescence-associated β-galactosidase)", "setting": "[6]; 0.1 μM for 3 days", "value": "about 65%"}, {"measurement": "Cells that fluoresce (senescence-associated β-galactosidase)", "setting": "[6]; 0.1 μM for 6 days", "value": "about 85%"}, {"measurement": "Cell death", "setting": "[6]; 1 μM", "value": "significant cell death"}, {"measurement": "Cells that fluoresce (senescence-associated β-galactosidase)", "setting": "[6]; 1 μM for 3 days", "value": "about 60%"}, {"measurement": "Cells that fluoresce (senescence-associated β-galactosidase)", "setting": "[6]; 1 μM for 6 days", "value": "about 85%"}, {"measurement": "Concentration of peak senescence induction", "setting": "[6]; treatment for 3-6 days", "value": 0.1, "unit": "µM"}]}, {"compound": "COc1cc([C@@H]2c3cc4c(cc3[C@@H](O[C@@H]3O[C@@H]5CO[C@@H](C)O[C@H]5[C@H](O)[C@H]3O)[C@H]3COC(=O)[C@H]23)OCO4)cc(OC)c1O", "note": "[etoposide]", "values": [{"measurement": "Appearance of treated cells (senescence)", "setting": "[7]", "value": "irregular appearance, are larger in size and are loosely packed"}]}, {"compound": "carboxymethyl lysine MAb (Clone 318003), R&D Systems, catalog no. MAB3247 (antibody)", "values": [{"measurement": "OD450", "setting": "[8]", "value": 0.075, "unit": "OD450"}, {"measurement": "OD450", "setting": "[9]", "value": 0.092, "unit": "OD450"}, {"measurement": "OD450", "setting": "[10]", "value": 0.165, "unit": "OD450"}, {"measurement": "OD450", "setting": "[11]", "value": 0.09, "unit": "OD450"}, {"measurement": "OD450", "setting": "[12]", "value": 0.086, "unit": "OD450"}, {"measurement": "OD450", "setting": "[13]", "value": 0.462, "unit": "OD450"}, {"measurement": "OD450", "setting": "[14]", "value": 0.312, "unit": "OD450"}, {"measurement": "OD450", "setting": "[15]", "value": 0.083, "unit": "OD450"}]}]}
